Experimental data taken from PubChem BioAssay AID330 (DTP/NCI, 2004).
Where “and” joins values, the source holds several entries; their conditions need not be identical. Equal values may be shown once. Toxic doses and inconclusive results are not listed.

System: P388 leukemia ip, CD2F1 mice, survival T/C
Experiment: NCI In Vivo Anticancer Drug Screen. Data for tumor model P388 Leukemia (intraperitoneal) in CD2F1 (CDF1) mice
Conditions: endpoint: median survival time, higher = longer survival
How it was run: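 Mice carrying the transplanted tumor received test compound or vehicle. Survival was recorded in each group, and the value is the treated-group measurement divided by that of the vehicle-treated control group.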

[1] = dose: 50.0 mg/kg/injection, schedule: Q01DX009 (ip), vehicle: Klucel (hydroxypropylcellulose) (HPC)
[2] = dose: 100.0 mg/kg/injection, schedule: Q01DX009 (ip), vehicle: Klucel (hydroxypropylcellulose) (HPC)
[3] = dose: 200.0 mg/kg/injection, schedule: Q01DX009 (ip), vehicle: Klucel (hydroxypropylcellulose) (HPC)
[4] = dose: 50.0 mg/kg/injection, schedule: Q01DX009 (ip), vehicle: saline with Tween-80
[5] = dose: 100.0 mg/kg/injection, schedule: Q01DX009 (ip), vehicle: saline with Tween-80
[6] = dose: 60.0 mg/kg/injection, schedule: Q01DX005 (ip), vehicle: saline with Tween-80
[7] = dose: 120.0 mg/kg/injection, schedule: Q01DX005 (ip), vehicle: saline with Tween-80
[8] = dose: 240.0 mg/kg/injection, schedule: Q01DX005 (ip), vehicle: saline with Tween-80
[9] = dose: 50.0 mg/kg/injection, schedule: Q01DX005 (ip), vehicle: Klucel (hydroxypropylcellulose) (HPC)
[10] = dose: 100.0 mg/kg/injection, schedule: Q01DX005 (ip), vehicle: Klucel (hydroxypropylcellulose) (HPC)
[11] = dose: 200.0 mg/kg/injection, schedule: Q01DX009 (ip), vehicle: saline with Tween-80
[12] = dose: 50.0 mg/kg/injection, schedule: Q01DX009 (ip), vehicle: saline
[13] = dose: 100.0 mg/kg/injection, schedule: Q01DX009 (ip), vehicle: saline
[14] = dose: 200.0 mg/kg/injection, schedule: Q01DX009 (ip), vehicle: saline
[15] = dose: 100.0 mg/kg/injection, schedule: Q04DX003 (ip), vehicle: saline with Tween-80
[16] = dose: 200.0 mg/kg/injection, schedule: Q04DX003 (ip), vehicle: saline with Tween-80
[17] = dose: 400.0 mg/kg/injection, schedule: Q04DX003 (ip), vehicle: saline with Tween-80

For `CC(C)(C)C1=NC=CNC(C(F)(F)F)=C1`, the T/C (dose: 12.5 mg/kg/injection, schedule: Q01DX009 (ip), vehicle: Klucel (hydroxypropylcellulose) (HPC)) was 94 % of control, the T/C (dose: 25.0 mg/kg/injection, schedule: Q01DX009 (ip), vehicle: Klucel (hydroxypropylcellulose) (HPC)) was 100 % of control and the T/C [1] was 94 % of control.

For `CCOC(=O)C1=C(C)O/C(=C/C=C/c2ccccc2)C1=O`, the T/C [1] was 102 % of control, the T/C [2] was 98 % of control and the T/C [3] was 103 % of control.

For `CCS/C(C#N)=C/c1ccccc1Cl`, the T/C [4] was 103 % of control and the T/C [5] was 112 % of control.

For `COC(=O)c1c2csc3ccccc3n-2c(=O)c1C`, the T/C [6] was 102 % of control, the T/C [7] was 101 % of control and the T/C [8] was 95 % of control.

With `CC1CCOn2c1nc1ccccc1c2=O` (centres undefined) the T/C [1] was 97 % of control, the T/C [2] was 102 % of control and the T/C [3] was 113 % of control.

In the case of `NCCN.O=S(=O)([O-])[O-].[Cu+2].[OH3+].[OH3+]`, the T/C (dose: 6.25 mg/kg/injection, schedule: Q04DX002 (ip), vehicle: saline) is reported as 100 % of control, the T/C (dose: 12.5 mg/kg/injection, schedule: Q04DX002 (ip), vehicle: saline) is reported as 100 % of control and the T/C (dose: 25.0 mg/kg/injection, schedule: Q04DX002 (ip), vehicle: saline) is reported as 100 % of control.

With `COc1ccc(CCN2C(=O)CCC3=C2CCCC3=O)cc1OC` the T/C (dose: 25.0 mg/kg/injection, schedule: Q01DX005 (ip), vehicle: Klucel (hydroxypropylcellulose) (HPC)) was 102 % of control, the T/C [9] was 100 % of control and the T/C [10] was 102 % of control. For the same molecule, the T/C (dose: 200.0 mg/kg/injection, schedule: Q01DX005 (ip), vehicle: Klucel (hydroxypropylcellulose) (HPC)) was 100 % of control.

`COc1ccc2c(c1OC)C(=O)O/C2=C\c1cc2c(cc1CCN(C)C)OCO2` was tested, and the T/C (dose: 12.5 mg/kg/injection, schedule: Q01DX001 (ip), vehicle: saline + alcohol) was 99 % of control, the T/C (dose: 25.0 mg/kg/injection, schedule: Q01DX001 (ip), vehicle: saline + alcohol) was 98 % of control and the T/C (dose: 50.0 mg/kg/injection, schedule: Q01DX001 (ip), vehicle: saline + alcohol) was 99 % of control.

For `CC1CCCCN1CC(C)(C)C` (centres undefined), the T/C (dose: 60.0 mg/kg/injection, schedule: Q01DX005 (ip), vehicle: Klucel (hydroxypropylcellulose) (HPC)) was 100 % of control and the T/C (dose: 120.0 mg/kg/injection, schedule: Q01DX005 (ip), vehicle: Klucel (hydroxypropylcellulose) (HPC)) was 93 % of control.

`Nc1ccccc1SCc1ccccc1` was tested, and the T/C (dose: 25.0 mg/kg/injection, schedule: Q01DX009 (ip), vehicle: saline with Tween-80) was 103 % of control, the T/C [4] was 100 % of control and the T/C [5] was 102 % of control. For the same molecule, the T/C [11] was 108 % of control.

For `CCC(=O)n1c(Cl)c(/C=N/NC(N)=S)c2ccccc21`, the T/C (dose: 100.0 mg/kg/injection, schedule: Q01DX001 (ip), vehicle: Klucel (hydroxypropylcellulose) (HPC)) was 95 % of control, the T/C (dose: 200.0 mg/kg/injection, schedule: Q01DX001 (ip), vehicle: Klucel (hydroxypropylcellulose) (HPC)) was 100 % of control and the T/C (dose: 400.0 mg/kg/injection, schedule: Q01DX001 (ip), vehicle: Klucel (hydroxypropylcellulose) (HPC)) was 93 % of control.

For `N#[N+]c1c([O-])ccc2ccccc12`, the T/C (dose: 25.0 mg/kg/injection, schedule: Q04DX002 (ip), vehicle: Klucel (hydroxypropylcellulose) (HPC)) was 92 % of control, the T/C (dose: 50.0 mg/kg/injection, schedule: Q04DX002 (ip), vehicle: Klucel (hydroxypropylcellulose) (HPC)) was 104 % of control and the T/C (dose: 100.0 mg/kg/injection, schedule: Q04DX002 (ip), vehicle: Klucel (hydroxypropylcellulose) (HPC)) was 90 % of control.

`COC1=CC(=O)C(OC)=C(c2c[nH]c3ccccc23)C1=O` was tested, and the T/C [6] was 95 % of control, the T/C [7] was 87 % of control and the T/C [8] was 97 % of control.

In the case of `Cc1ccc(NC(=O)N(C)C)cc1NC(=O)N(C)C`, the T/C [6] is reported as 100 % of control, the T/C [7] is reported as 100 % of control and the T/C [8] is reported as 101 % of control.

For `CC(=O)C(=O)C1=C2CCCN2CCc2cc3c(cc21)OCO3`, the T/C (dose: 6.25 mg/kg/injection, schedule: Q01DX009 (ip), vehicle: water) was 92 % of control, the T/C (dose: 12.5 mg/kg/injection, schedule: Q01DX009 (ip), vehicle: water) was 98 % of control and the T/C (dose: 25.0 mg/kg/injection, schedule: Q01DX009 (ip), vehicle: water) was 93 % of control. The T/C (dose: 50.0 mg/kg/injection, schedule: Q01DX009 (ip), vehicle: water) was 101 % of control and the T/C (dose: 100.0 mg/kg/injection, schedule: Q01DX009 (ip), vehicle: water) was 99 % of control.

With `[CH3][Sn]([CH3])([n]1cc(CC(=O)O)c2ccccc21)[n]1cc(CC(=O)O)c2ccccc21` the T/C [9] was 116 % of control and the T/C [10] was 108 % of control.

In the case of `CC(C)(Br)C(=O)NN=C(c1ccccc1)c1ccccc1`, the T/C [12] is reported as 100 % of control, the T/C [13] is reported as 100 % of control and the T/C [14] is reported as 100 % of control.

With `C[C@]12CCC(=O)C=C1CC[C@@H]1[C@@H]2[C@@H](O)C[C@@]2(C)[C@H]1CC[C@]2(O)C(=O)CF` the T/C [5] was 100 % of control, the T/C [15] was 109 % of control and the T/C [11] was 100 % of control. For the same molecule, the T/C [16] was 109 % of control, the T/C (dose: 400.0 mg/kg/injection, schedule: Q01DX009 (ip), vehicle: saline with Tween-80) was 100 % of control and the T/C [17] was 109 % of control.

With `C=CCC(CC1CC2CCCCN2O1)OCc1ccccc1` (centres undefined) the T/C [15] was 101 % of control, the T/C [16] was 105 % of control and the T/C [17] was 104 % of control.

In the case of `O=C1CCCCC1O` (centres undefined), the T/C [12] is reported as 104 % of control and 106 % of control, the T/C [13] is reported as 100 % of control and 103 % of control and the T/C [14] is reported as 110 % of control and 97 % of control. For the same molecule, the T/C (dose: 400.0 mg/kg/injection, schedule: Q01DX009 (ip), vehicle: saline) was 88 % of control and 95 % of control.

With `O=C1c2cc(Br)ccc2OC2CCON12` (centres undefined) the T/C [1] was 108 % of control, the T/C [2] was 107 % of control and the T/C [3] was 94 % of control.

For `COC(=O)c1nc(=S)[nH]c(C(=O)OC)c1C(=O)/C=C/c1ccccc1`, the T/C (dose: 60.0 mg/kg/injection, schedule: Q01DX005 (ip), vehicle: saline + Tween-80 + alcohol) was 104 % of control and the T/C (dose: 120.0 mg/kg/injection, schedule: Q01DX005 (ip), vehicle: saline + Tween-80 + alcohol) was 100 % of control.

`c1ccc2c3ccc(c2c1)CCc1ccc(c2ccccc12)CC3` was tested, and the T/C (dose: 100.0 mg/kg/injection, schedule: Q04DX003 (ip), vehicle: other) was 96 % of control and the T/C (dose: 200.0 mg/kg/injection, schedule: Q04DX003 (ip), vehicle: other) was 90 % of control.

In the case of `CNC(=O)OCc1c(COC(=O)NC)c(-c2ccc(Sc3ccccc3)cc2)n(C)c1C`, the T/C (dose: 12.5 mg/kg/injection, schedule: Q01DX009 (ip), vehicle: distilled water + Tween-80) is reported as 154 % of control, the T/C (dose: 25.0 mg/kg/injection, schedule: Q01DX009 (ip), vehicle: distilled water + Tween-80) is reported as 152 % of control and the T/C (dose: 50.0 mg/kg/injection, schedule: Q01DX009 (ip), vehicle: distilled water + Tween-80) is reported as 160 % of control and 162 % of control. For the same molecule, the T/C (dose: 100.0 mg/kg/injection, schedule: Q01DX009 (ip), vehicle: distilled water + Tween-80) was 171 % of control and 184 % of control and the T/C (dose: 200.0 mg/kg/injection, schedule: Q01DX009 (ip), vehicle: distilled water + Tween-80) was 108 % of control.

In the case of `COc1ccccc1C1NC(c2ccccc2OC)C2CCCC1C2O` (centres undefined), the T/C (dose: 100.0 mg/kg/injection, schedule: Q04DX003 (ip), vehicle: saline) is reported as 98 % of control, the T/C (dose: 200.0 mg/kg/injection, schedule: Q04DX003 (ip), vehicle: saline) is reported as 97 % of control and the T/C (dose: 400.0 mg/kg/injection, schedule: Q04DX003 (ip), vehicle: saline) is reported as 95 % of control.

With `CC(C)=CCC/C(C)=C/CC/C(C)=C/CS(=O)(=O)c1ccc(C)cc1` the T/C [4] was 105 % of control, the T/C [5] was 105 % of control and the T/C [11] was 109 % of control.

`O=c1[nH]c2c([N+](=O)[O-])cccc2nc1/C=C(\O)c1cccc([N+](=O)[O-])c1` was tested, and the T/C (dose: 7.5 mg/kg/injection, schedule: Q01DX005 (ip), vehicle: Klucel + Tween-80) was 94 % of control, the T/C (dose: 15.0 mg/kg/injection, schedule: Q01DX005 (ip), vehicle: Klucel + Tween-80) was 94 % of control and the T/C (dose: 30.0 mg/kg/injection, schedule: Q01DX005 (ip), vehicle: Klucel + Tween-80) was 88 % of control.

`CC1=NN(c2ccc(Cl)cc2)C(=O)/C1=C\c1c(C)[nH]n(-c2ccc(Cl)cc2)c1=O` was tested, and the T/C (dose: 50.0 mg/kg/injection, schedule: Q01DX005 (ip), vehicle: saline with Tween-80) was 110 % of control, the T/C (dose: 100.0 mg/kg/injection, schedule: Q01DX005 (ip), vehicle: saline with Tween-80) was 101 % of control and the T/C (dose: 200.0 mg/kg/injection, schedule: Q01DX005 (ip), vehicle: saline with Tween-80) was 96 % of control.
